Measurements from patent US9161944B2, “Method for preventing cancer metastasis” (INSERM (INSTITUT NATIONAL DE LA SANTE ET DE LA SANTE ET DE …, priority 2010, dated 2015).

How the values were obtained:
[1] = system: SKCa channel; assay: 125I-apamin binding, membrane homogenates of cerebral cortex; details: 0.3 and 2 μM, FIG. 8E
Protocol: FIG. 8: Effect of JPH1701 on SK3 channel activity. […] Results are expressed as the mean±S.E.M. FIG. 8C) Histograms showing the effect of racemic hexadecyloxy-2-O-methyl-sn-glycerol-lactose (JPH 1701 or Ohmline, i.e: JPH1701 in the example) mixture and of both enantiomers (R-JPH1701 and S-JPH1701) on SK3 activity. The percentages of inhibition represent the ratio (SK3 current amplitude and chord conductance (in the presence of 10 μM JPH1701)/SK3 current amplitude in control experiments). Black bars show current at 0 mV and grey bars indicate the chord conductance. FIG. 8D) Dose-response effect of the form + of JPH1701 (concentrations: 0 (control), 0.3, 1 and 10 μM). Columns, mean, bars, SEM, (5 cells for racemic mix and 4 cells for + and − forms). FIG. 8E) Histogram showing the % of control specific binding of ^125I-Apamin ([…]) to SKCa channel obtained from membrane homogenates of cerebral cortex by 0.3 and 2 μM JPH1701.
To investigate whether JPH1701 interacts with the apamin binding site, 125I-apamin binding studies were performed.

[2] = system: PKCs; assay: PKCs activity (alpha, Beta 1, Beta 2, Gamma, Delta, Epsilon, Zeta, Eta, Theta, Iota); format: biochemical; details: ten PKCs, FIG. 11C
Protocol: (§1) FIG. 11: Effects of JPH1701 on PAF receptor, PLC and PKCs activities. FIG. 11A) Histogram showing the percentage of control specific binding of 3H-C16-PAF to recombinant PAF receptor obtained from membrane homogenates of CHO cells by 0.3 and 2 μM edelfosine and by 0.3 and 2 μM JPH1701. FIG. 11B) Histogram showing the percentage of control agonist response (% effect i.e: increase of intracellular calcium concentration) of 0.3 and 2 μM edelfosine and JPH1701 on PAF receptor normalized to the response induced by 100 nM C16-PAF. […] FIG. 11C-D) Dose responses curves showing the effect of JPH1701 on PKCs (FIG. 11C, PKCs are: alpha, Beta 1, Beta 2, Gamma, Delta, Epsilon, Zeta, Eta, Theta, Iota) and PhosphoLipase C (PLC) activities (FIG. 11D).

[3] = molecular target: PhosphoLipase C (PLC); assay: PhosphoLipase C activity; format: biochemical; details: FIG. 11D
Protocol: as §1

[4] = system: MCF-10A; assay: Transwell motility of non cancerous cells; format: cell-based, human; details: 10 nM to 1 μM, FIG. 6C
Protocol: FIG. 6: JPH1701 (or Ohmline) activity on cell motility on cancerous MDA-MB-435s cells and on non cancerous MCF-10A cells. The motility was tested by transwell assay. Additionally, viability tests were performed using MTT assays. FIG. 6A-B) JPH1701 (the concentrations of JPH1701, for the FIG. 6A, are 0 (control condition), 10 nM, 100 nM, 300 nM and 1 μM) reduces motility (FIG. 6A) of MDA-MB-435s wild type (WT) cells from 10 nM without affecting viability (FIG. 6B) except at 10 μM. FIG. 6C-D) MCF-10A motility (FIG. 6C) and viability (FIG. 6D) are not affected by JPH1701 (the concentrations of JPH1701, for the FIG. 6C, are 0 (control condition), 10 nM, 100 nM, 300 nM and 1 μM). FIG. 6E-F) Effect on SK3 dependent motility.
The immortalized normal mammary epithelial cell lines MCF-10A and 184A1 were cultured in DMEM/Ham's F-12, 1:1 mix containing 5% horse serum (Invitrogen Life Technologies, France), insulin (10 μg/ml), epidermal growth factor (20 ng/ml), hydrocortisone (0.5 μg/ml) and, respectively for MCF-10A and 184A1, 100 ng/ml cholera toxin and 1 ng/ml cholera toxin plus 5 μg/ml transferrin.

[5] = molecular target: SK3/KCa2.3 channel (Homo sapiens, UniProt Q9UGI6); assay: Whole-cell patch clamp, apamin-sensitive current in MDA-MB-435s; format: cell-based; set-up: effect of JPH1701 on the SK3 activity in MDA-MB-435s cells using patch clamp technique; endogenous in cells; host or cells: MDA-MB-435s wild type
SK3/KCa2.3 channel, sequence (Q9UGI6 whole entry): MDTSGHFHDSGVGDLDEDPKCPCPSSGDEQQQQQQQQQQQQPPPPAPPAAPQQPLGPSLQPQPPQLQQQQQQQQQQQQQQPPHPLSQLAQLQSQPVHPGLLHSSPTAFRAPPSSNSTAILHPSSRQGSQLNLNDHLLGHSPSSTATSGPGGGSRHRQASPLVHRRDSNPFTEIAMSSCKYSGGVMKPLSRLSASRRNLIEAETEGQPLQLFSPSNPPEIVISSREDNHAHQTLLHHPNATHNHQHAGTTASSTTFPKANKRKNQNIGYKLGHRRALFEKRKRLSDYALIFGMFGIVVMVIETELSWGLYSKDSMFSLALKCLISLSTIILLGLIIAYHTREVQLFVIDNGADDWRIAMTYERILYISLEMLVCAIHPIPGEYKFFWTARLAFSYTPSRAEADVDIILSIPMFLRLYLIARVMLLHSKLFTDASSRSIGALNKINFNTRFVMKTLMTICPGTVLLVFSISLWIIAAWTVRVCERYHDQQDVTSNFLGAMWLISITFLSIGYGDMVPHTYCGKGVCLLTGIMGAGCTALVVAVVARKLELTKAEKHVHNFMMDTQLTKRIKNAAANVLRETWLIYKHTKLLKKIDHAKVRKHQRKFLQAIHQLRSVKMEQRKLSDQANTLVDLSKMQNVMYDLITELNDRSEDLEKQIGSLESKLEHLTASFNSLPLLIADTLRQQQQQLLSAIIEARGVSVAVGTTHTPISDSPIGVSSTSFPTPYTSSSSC
Protocol: FIG. 7: Effects of a 24 hours application of JPH1701 at 1 μM on whole cell current in MDA-MB-435s Wild Type (WT). FIG. 7A) Illustrations of currents recorded on MDA-MD-435s. On the top, current were recorded on MDA-MB-435s in control condition. At the bottom, current were representative of a cell which was treated with JPH1701 1 μM during 24 hours. FIG. 7B) Effects of JPH1701 on apamin-sensitive currents. Cells were incubated with JHP1701 at 1 μM during 24 hours then currents were measured in absence or with apamin, a specific blocker of the SK3/KCa2.3 channel. Histograms show the amplitude of currents inhibited by apamin. After JPH1701 treatment apamin-sensitive current were abolished. […]
Briefly, experiments were conducted using Axopatch 200B patch-clamp amplifier (Axon Instrument) and data, digitized with 1322-A Digidata converter (Axon Instrument), were stored on a computer using Clampex of pClamp 9.2 software (Axon Instru-ment). The patch-clamp data was analyzed using both Clampfit 9.2 and Origin 7.0 software (Microcal Inc., Northampton, Mass., USA).
The pipette solution for the whole-cell recordings contained (in mM): K-glutamate 125, KCl 20, MgCl2 1, Mg-ATP 1, HEPES 10, and pH was adjusted to 7.2 with KOH and various concentrations of CaCl2 and EGTA were added to obtain calculated pCa=7 (0.37 mM CaCl2 and 10 mM EGTA) or pCa=6.4 (0.7 mM CaCl2 and 1 mM EGTA). […]

hexadecyloxy-2-O-methyl-sn-glycerol-lactose [JPH1701]
Inhibition of 125I-apamin binding [1]: does not inhibit | Effect on PKC activity [2]: did not affect | IC50 [3]: 7 µM | Effect on cell migration of non-cancerous cells [4]: did not affected | Apamin-sensitive current after treatment ([5]; 1 μM for 24 h, FIG. 7B): totally abolished | Apamin-sensitive current in MDA-MB-435s ([5]; wild-type cells, residual current abolished by apamin): 0.071 ± 0.215 pA/pF
